Test results published in US11078184B2, “Dexrabeprazole sodium compound and pharmaceutical composition thereof” (JIANGSU AOSAIKANG PHARMACEUTICAL CO., LTD., priority 2017, dated 2021).

Columns and labels:
[1] = Determination of hygroscopic moisture; type: physicochemical; conditions: 25° C. thermostatic drier over saturated ammonium chloride solution, sodium salt
Description: Determination of hygroscopic moisture: 25±+1° C. Thermostatic Drier (with a saturated solution of ammonium chloride being placed at bottom of the drier).

[2] = Test of influence factors (stability: appearance and relevant materials by HPLC); type: physicochemical
Description: Chromatographic conditions of relevant materials: Chromatographic column: charged with octadecylsilane bonded silica as a filler (Agilent ZORBAX Extend C18, 250×4.6 mm, […]); Mobile phase A: 0.025 mol/L of phosphate solution (the pH of 0.025 mol/L of dipotassium phosphate solution was adjusted to 7.2 with phosphoric acid)-acetonitrile (95:5); Mobile phase B: methanol; Mobile phase C: acetonitrile; A linear gradient elution is carried out in accordance with the following table. Detection wavelength: 280 nm, 220 nm (for impurity H) Flowrate: 1.0 ml/min Column temperature: 25° C. Sample size: 5 μl Diluent: the pH of 0.1 mol/L of dipotassium phosphate solution was adjusted to 11.3 with 2 mol/L potassium hydroxide solution-methanol (45:55). Crystal forms A, B, and C (each 100 mg) were placed under different conditions, and sampled at Days 0, 10, 20, and 30 for detecting their characters and relevant materials, respectively.

[3] = High temperature / grinding test, change of crystal form by XRPD; type: physicochemical; conditions: sodium salt; for Stability of the crystal form at a high temperature: XRPD
From the text: Crystal forms A and C of dexrabeprazole sodium were placed under different conditions as listed in Table 5 below, and sampled for XRPD detection to investigate the change of crystal forms.

[4] = Test of suspension equilibrium (XRPD); conditions: suspension in acetonitrile
Description: XRPD test (FIGS. 10 & 12-14, Modern Analysis Center, Nanjing University): Instrument model: Thermo Co., Ltd., X'TRA Type X Diffractometer, target: Cu (40 kV, 40 mA), scanning range: 2°-40° (2θvalue), scanning step length: 0.02, scanning speed: 5
The mixture was stirred, together with 10 ml of a solvent at 35° C. and under nitrogen atmosphere, and then sampled for XRPD detection.

[5] = Determination of angle of repose (powder flowability); type: physicochemical; conditions: average of three determinations; sodium salt
Description: Determination of angle of repose: BT-1001 Intelligent Powder Characteristic Tester (Dandong Bettersize Instrument Co., Ltd.)
Angle of repose is a key characteristic of the frictional resistance between powder particles, and is an important parameter for characterizing the powder flowability. The angle of repose is determined by measuring the height and the base radius of a cone formed by powders, with a calculation equation as follows: tan(α)=height/radius. The angle of reposes of crystal forms A and B were measured and compared for their difference, respectively.

[6] = Tap density, bulk density, compression coefficient and Hausner ratio; type: physicochemical; conditions: sodium salt
Description: The compression coefficient and the Hausner ratio closely related thereto are simple and fast methods for predicting the powder property, and are often used as the index for characterizing the powder flowability. Crystal forms A and B were sampled for measuring the tap density and bulk density of powder of different crystal forms, and then the compression coefficient and the Hausner ratio were calculated. Wherein, the compression coefficient (%)=[(the tap density−the bulk density)/the tap density×100%; and the Hausner ratio=the tap density/the bulk density.

[7] = High humidity, RH75 ± 5%, Day 0
[8] = High humidity, RH75 ± 5%, Day 0, sodium salt
[9] = High humidity, RH75 ± 5%, Day 10, sodium salt
[10] = High humidity, RH75 ± 5%, Day 20, sodium salt
[11] = High humidity, RH75 ± 5%, Day 30, sodium salt
[12] = High temperature, 40° C., Day 0
[13] = High temperature, 40° C., Day 0, sodium salt
[14] = High temperature, 40° C., Day 10
[15] = High temperature, 40° C., Day 10, sodium salt
[16] = High temperature, 40° C., Day 20
[17] = High temperature, 40° C., Day 20, sodium salt
[18] = High temperature, 40° C., Day 30
[19] = High temperature, 40° C., Day 30, sodium salt
[20] = Light exposure, 4500 ± 500 Lx, Day 0
[21] = Light exposure, 4500 ± 500 Lx, Day 0, sodium salt
[22] = Light exposure, 4500 ± 500 Lx, Day 10
[23] = Light exposure, 4500 ± 500 Lx, Day 10, sodium salt
[24] = Light exposure, 4500 ± 500 Lx, Day 20
[25] = Light exposure, 4500 ± 500 Lx, Day 20, sodium salt
[26] = Light exposure, 4500 ± 500 Lx, Day 30
[27] = Light exposure, 4500 ± 500 Lx, Day 30, sodium salt

COCCCOc1ccnc(C[S@@+]([O-])c2nc3ccccc3[n-]2)c1C.[Na+] [Crystal form C, R-(+)-2-{[4-(3-methoxypropoxy)-3-methylpyrid-2-yl]methylsulfinyl}-1H-benzimidazole sodium salt]
Hygroscopic moisture (%) ([1]; 0 h): 0.11% | Hygroscopic moisture (%) ([1]; 24 h): 0.15% | Hygroscopic moisture (%) ([1]; 48 h): 0.18% | Appearance character [2, 7]: Off-white | Relevant materials: Maximum individual impurity (%) [2, 8]: 0.032% | Relevant materials: Total impurity (%) [2, 8]: 0.085% | Appearance character [2, 9]: Off-white | Relevant materials: Maximum individual impurity (%) [2, 9]: 0.027% | Relevant materials: Total impurity (%) [2, 9]: 0.094% | Appearance character [2, 10]: Off-white | Relevant materials: Maximum individual impurity (%) [2, 10]: 0.015% | Relevant materials: Total impurity (%) [2, 10]: 0.166% | Appearance character [2, 11]: Off-white | Relevant materials: Maximum individual impurity (%) [2, 11]: 0.292% | Relevant materials: Total impurity (%) [2, 11]: 0.491% | Appearance character [2, 12]: Off-white | Relevant materials: Maximum individual impurity (%) [2, 13]: 0.032% | Relevant materials: Total impurity (%) [2, 13]: 0.085% | Appearance character [2, 14]: Off-white | Relevant materials: Maximum individual impurity (%) [2, 15]: 0.030% | Relevant materials: Total impurity (%) [2, 15]: 0.093% | Appearance character [2, 16]: Off-white | Relevant materials: Maximum individual impurity (%) [2, 17]: 0.028% | Relevant materials: Total impurity (%) [2, 17]: 0.117% | Appearance character [2, 18]: Off-white | Relevant materials: Maximum individual impurity (%) [2, 19]: 0.024% | Relevant materials: Total impurity (%) [2, 19]: 0.136% | Appearance character [2, 20]: Off-white | Relevant materials: Maximum individual impurity (%) [2, 21]: 0.032% | Relevant materials: Total impurity (%) [2, 21]: 0.085% | Appearance character [2, 22]: Off-white | Relevant materials: Maximum individual impurity (%) [2, 23]: 0.088% | Relevant materials: Total impurity (%) [2, 23]: 0.112% | Appearance character [2, 24]: Off-white | Relevant materials: Maximum individual impurity (%) [2, 25]: 0.094% | Relevant materials: Total impurity (%) [2, 25]: 0.245% | Appearance character [2, 26]: Off-white | Relevant materials: Maximum individual impurity (%) [2, 27]: 0.113% | Relevant materials: Total impurity (%) [2, 27]: 0.344% | Stability compared with crystal form A ([2]; high temperature and high humidity): better than that of crystal form A | Stability compared with crystal form A ([2]; light exposure): comparable to that of crystal form A | Stability of the crystal form at a high temperature [3]: keeps stable at a high temperature without crystal transformation | Stability of the crystal form in suspension equilibrium [4]: better stability than amorphous form and crystal form A

COCCCOc1ccnc(C[S@@+]([O-])c2nc3ccccc3[n-]2)c1C.[Na+] [Crystal form A, R-(+)-2-{[4-(3-methoxypropoxy)-3-methylpyrid-2-yl]methylsulfinyl}-1H-benzimidazole sodium salt, reference compound]
Hygroscopic moisture (%) ([1]; 0 h): 4.66% | Hygroscopic moisture (%) ([1]; 24 h): 5.10% | Hygroscopic moisture (%) ([1]; 48 h): 5.72% | Appearance character [2, 7]: Off-white | Relevant materials: Maximum individual impurity (%) [2, 8]: 0.037% | Relevant materials: Total impurity (%) [2, 8]: 0.098% | Appearance character ([2]; High humidity, RH75 ± 5%, Day 10): Yellow | Relevant materials: Maximum individual impurity (%) [2, 9]: 0.029% | Relevant materials: Total impurity (%) [2, 9]: 0.152% | Appearance character ([2]; High humidity, RH75 ± 5%, Day 20): Yellow | Relevant materials: Maximum individual impurity (%) [2, 10]: 0.200% | Relevant materials: Total impurity (%) [2, 10]: 0.483% | Appearance character ([2]; High humidity, RH75 ± 5%, Day 30): Yellow | Relevant materials: Maximum individual impurity (%) [2, 11]: 0.287% | Relevant materials: Total impurity (%) [2, 11]: 1.495% | Appearance character [2, 12]: Off-white | Relevant materials: Maximum individual impurity (%) [2, 13]: 0.037% | Relevant materials: Total impurity (%) [2, 13]: 0.098% | Appearance character [2, 14]: Off-white | Relevant materials: Maximum individual impurity (%) [2, 15]: 0.037% | Relevant materials: Total impurity (%) [2, 15]: 0.100% | Appearance character [2, 16]: Off-white | Relevant materials: Maximum individual impurity (%) [2, 17]: 0.021% | Relevant materials: Total impurity (%) [2, 17]: 0.145% | Appearance character [2, 18]: Off-white | Relevant materials: Maximum individual impurity (%) [2, 19]: 0.019% | Relevant materials: Total impurity (%) [2, 19]: 0.210% | Appearance character [2, 20]: Off-white | Relevant materials: Maximum individual impurity (%) [2, 21]: 0.037% | Relevant materials: Total impurity (%) [2, 21]: 0.098% | Appearance character [2, 22]: Off-white | Relevant materials: Maximum individual impurity (%) [2, 23]: 0.077% | Relevant materials: Total impurity (%) [2, 23]: 0.133% | Appearance character [2, 24]: Off-white | Relevant materials: Maximum individual impurity (%) [2, 25]: 0.099% | Relevant materials: Total impurity (%) [2, 25]: 0.298% | Appearance character [2, 26]: Off-white | Relevant materials: Maximum individual impurity (%) [2, 27]: 0.123% | Relevant materials: Total impurity (%) [2, 27]: 0.396% | Comparison of XRPD fit charts (change of crystal form) ([3]; grinded in a mortar for 5 min): partially converted to an amorphous form | Stability of the crystal form at a high temperature [3]: unstable at a high temperature | Determination of angle of repose, Average [5]: Average: 58.89° | Bulk density [6]: 0.267 g · cm^−3 | Tap density [6]: 0.450 g · cm^−3

COCCCOc1ccnc(C[S@@+]([O-])c2nc3ccccc3[n-]2)c1C.[Na+] [Crystal form B, R-(+)-2-{[4-(3-methoxypropoxy)-3-methylpyrid-2-yl]methylsulfinyl}-1H-benzimidazole sodium salt]
Hygroscopic moisture (%) ([1]; 0 h): 4.72% | Hygroscopic moisture (%) ([1]; 24 h): 5.18% | Hygroscopic moisture (%) ([1]; 48 h): 5.75% | Appearance character [2, 7]: Off-white | Relevant materials: Maximum individual impurity (%) [2, 8]: 0.029% | Relevant materials: Total impurity (%) [2, 8]: 0.088% | Appearance character [2, 9]: Yellow | Relevant materials: Maximum individual impurity (%) [2, 9]: 0.017% | Relevant materials: Total impurity (%) [2, 9]: 0.141% | Appearance character [2, 10]: Yellow | Relevant materials: Maximum individual impurity (%) [2, 10]: 0.189% | Relevant materials: Total impurity (%) [2, 10]: 0.426% | Appearance character [2, 11]: Yellow | Relevant materials: Maximum individual impurity (%) [2, 11]: 0.280% | Relevant materials: Total impurity (%) [2, 11]: 1.300% | Appearance character [2, 12]: Off-white | Relevant materials: Maximum individual impurity (%) [2, 13]: 0.029% | Relevant materials: Total impurity (%) [2, 13]: 0.088% | Appearance character [2, 14]: Off-white | Relevant materials: Maximum individual impurity (%) [2, 15]: 0.028% | Relevant materials: Total impurity (%) [2, 15]: 0.090% | Appearance character [2, 16]: Off-white | Relevant materials: Maximum individual impurity (%) [2, 17]: 0.015% | Relevant materials: Total impurity (%) [2, 17]: 0.126% | Appearance character [2, 18]: Off-white | Relevant materials: Maximum individual impurity (%) [2, 19]: 0.012% | Relevant materials: Total impurity (%) [2, 19]: 0.190% | Appearance character [2, 20]: Off-white | Relevant materials: Maximum individual impurity (%) [2, 21]: 0.029% | Relevant materials: Total impurity (%) [2, 21]: 0.088% | Appearance character [2, 22]: Off-white | Relevant materials: Maximum individual impurity (%) [2, 23]: 0.059% | Relevant materials: Total impurity (%) [2, 23]: 0.120% | Appearance character [2, 24]: Off-white | Relevant materials: Maximum individual impurity (%) [2, 25]: 0.155% | Relevant materials: Total impurity (%) [2, 25]: 0.263% | Appearance character [2, 26]: Off-white | Relevant materials: Maximum individual impurity (%) [2, 27]: 0.100% | Relevant materials: Total impurity (%) [2, 27]: 0.360% | Stability compared with crystal form A ([2]; light exposure, high temperature, and high humidity): comparable to that of crystal form A | Determination of angle of repose, Average [5]: Average: 36.35° | Compression coefficient ([6]; (tap density − bulk density)/tap density × 100%): 22.72% | Bulk density [6]: 0.398 g · cm^−3 | Tap density [6]: 0.515 g · cm^−3 | Hausner ratio ([6]; tap density/bulk density): 1.29

COCCCOc1ccnc(C[S@@+]([O-])c2nc3ccccc3[n-]2)c1C.[Na+] [Amorphous form, R-(+)-2-{[4-(3-methoxypropoxy)-3-methylpyrid-2-yl]methylsulfinyl}-1H-benzimidazole sodium salt, reference compound]
Hygroscopic moisture (%) ([1]; 0 h): 6.60% | Hygroscopic moisture (%) ([1]; 24 h): 21.60% | Hygroscopic moisture (%) ([1]; 48 h): 21.81%
